Measurements: article PMC4809600, “The Influence of Chronic Wound Extracts on Inflammatory Cytokine and Histatin Stability” (PLoS ONE, 2016)

What was measured:
[1] = Stability in chronic wound extracts (CWE), capillary zone electrophoresis; type: in vitro ADME, human; settings: 37°C, 96 h, CZE; for Starting material remaining intact after 96 h in CWE: 1 mg/ml in PBS mixed 1:1 with CWE (1 mg/ml protein, pools of 5 donors), 0 h = 100%, mean of 3 independent experiments; for Degradation in CWE in 96 h: incubation with chronic wound extracts
Source text: Debridement tissue was obtained from chronic ulcers of 15 patients with therapy resistant (arterio-venous) leg ulcers, according to procedures described earlier. In brief, moist, easily removable debridement material, essentially blood free, was collected from the ulcer surface and divided equally into two different solutions: (i) PBS (B. Braun, Melsungen, Germany), (ii) PBS with protease inhibitor cocktail (PIC) (1:100; v/v) (Sigma-Aldrich, Steinheim, Germany). The mixtures were gently shaken for 1 h at 4°C to elute proteins and centrifuged; the supernatants were stored at -80°C. Total protein content of the supernatant was measured using the BioRad Protein Assay (BioRad Laboratories, Hercules, California, USA) essentially as described by the supplier. Samples were diluted to 1 mg/ml protein and extracts of five different donors were pooled; three different pools of five donors were used in all experiments. The samples are referred to as chronic wound extracts (CWE).
To determine the stability of the different peptides in CWE, histatins and cytokines were dissolved in PBS at 1 mg/ml. Histatins and cytokines were incubated in a 1:1 ratio with (i) PBS, (ii) CWE in PBS, or (iii) CWE in PBS containing PIC, in a total volume of 25 μl. Imidazole (Sigma-Aldrich) was added as an internal standard, with a final concentration of 100 μg/ml. The mixtures were incubated at 37°C, and samples were taken at 0, 24, 48, 72 and 96 h. For histatins containing mixtures, additional samples were taken after 2, 4, 8 and 16 h of incubation.
The samples were analyzed with a BioFocus 2000 capillary zone electrophoresis system (Bio-Rad Laboratories, Hercules, CA, USA) equipped with an uncoated fused-silica capillary of internal diameter 50 μm and a length of 24 cm. Samples were loaded by pressure injection (5 psi/sec). Separation was performed at 10 kV (cathode at the detector side) at 20°C using 0.1 M phosphate buffer (pH 2.5) as electrolyte and monitored continuously at 200 nm. Peaks were quantified with the BioFocus Integrator software. In order to quantify the percentage of intact peptides remaining after incubation with CWE, the ratios of histatins, rhIL-6 or rhCXCL8 to internal standard was set at 100% at 0h, and the ratios at the other incubation time points were related to this.

dermal fibroblasts = experiment: Fibroblast wound healing scratch assay (migration); type: cell-based, human; settings: serum-free medium, histatins 5 μM, rhIL-6 125 ng/ml, rhCXCL8 250 ng/ml, (E0-E96)/(U0-U96), unexposed = 1; for Migration of dermal fibroblasts in scratch assay, 8 h exposure: 8 h exposure then 88 h without, read at 96 h; for Migration of dermal fibroblasts in scratch assay, 96 h exposure: continuous 96 h exposure
Method: Dermal fibroblasts were isolated from healthy human abdominal skin from patients undergoing corrective abdominal plastic surgery. After removal of all adipose tissue, the skin was washed in PBS and incubated overnight on dispase II (Roche, Mannheim, Germany) at 4°C. The next day, epidermis was removed and discarded and the dermis was incubated in collagenase type II (Gibco, Life Technologies, Grand Island, USA)/dispase II in Hanks balanced salt solution (HBSS) (Gibco) at 37°C for 2–3 h. Fibroblast medium consisting of DMEM (Lonza, Verviers, Belgium) containing 1% ultroserG (UG) (Biosepra, Cergy-Saint-Christopher, France) and 1% penicillin-streptomycin (P/S) (Gibco) was added and the solution was passed through an 100 μm and 40 μm cell strainer (Becton Dickinson Falcon, Erembodegem, Belgium). A single cell suspension was seeded at ± 3.5 x 10^4 cells cm^2 and further cultured in fibroblast medium. Medium was changed twice a week and cultures were passaged when 90% confluent using 0.5mM EDTA/0.05% trypsin (Gibco). The cells were maintained at 37°C in a humidified atmosphere containing 5% CO2 and used for experiments at passage 3.
A wound healing scratch assay was performed to determine the effect of histatins, rhIL-6 and rhCXCL8 on fibroblast migration. Confluent monolayers of fibroblasts in a 48-well plate (Costar, Corning Incorporated, New York, USA) were incubated with serum-free medium (DMEM containing 1% P/S and 0.1% bovine serum albumin (Sigma-Aldrich)) for 96 h to ensure minimum spontaneous migration. Next, a scratch was drawn with a disposable plastic pipette tip. Cultures were exposed to Hst1, cHst1, Hst2 and mad-Hst1 (all used at a concentration of 5μM), rhIL-6 (125 ng/ml), rhCXCL8 (250 ng/ml) and vehicle (H2O) in serum free medium. Two experimental set-ups were studied: i) cells were exposed only during the first 8 h to histatins and cytokines and then transferred to vehicle supplemented medium for an additional 88 h; or ii) cells were exposed to histatins and cytokines during the entire 96 h study period. Phase contrast micrographs were taken directly after drawing the scratch and after four days (96 h) of exposure. Data were analyzed using an image processing algorithm that has been described in detail in our previous work. The area of the scratch covered by migrating fibroblasts was determined using the following equation: (E0-E96)/(U0-U96), in which: E = exposure to a condition (IL-6, CXCL8 and histatins); U = unexposed (serum-free medium); E0 and U0 = area of the scratch at T = 0 h; E96 and U96 = area of the scratch (not covered with cells) after 96 h. In this way, in each exposed group (IL-6, CXCL8, histatins) the resurfaced area at 96 h is compared to its own 0 h time point and then set relative to the unexposed group (serum-free medium).

[2] = experiment 1, average of four replicates
[3] = experiment 2, average of four replicates
[4] = experiment 3, average of four replicates
[5] = experiment 4, average of four replicates

Substance | Starting material remaining intact after 96 h in CWE [1] | Degradation in CWE in 96 h [1] | Migration of dermal fibroblasts in scratch assay, 8 h exposure (dermal fibroblasts; [2]) | Migration of dermal fibroblasts in scratch assay, 8 h exposure (dermal fibroblasts; [3]) | Migration of dermal fibroblasts in scratch assay, 8 h exposure (dermal fibroblasts; [4]) | Migration of dermal fibroblasts in scratch assay, 8 h exposure (dermal fibroblasts; [5]) | Migration of dermal fibroblasts in scratch assay, 96 h exposure (dermal fibroblasts; [2]) | Migration of dermal fibroblasts in scratch assay, 96 h exposure (dermal fibroblasts; [3]) | Migration of dermal fibroblasts in scratch assay, 96 h exposure (dermal fibroblasts; [4]) | Migration of dermal fibroblasts in scratch assay, 96 h exposure (dermal fibroblasts; [5])
rhCXCL8: recombinant human CXCL8; source not split at this label (migration assay used CXCL8 (6–77) from R&D) | approximately 80% | ~ 40% | 1.29 | 1.35 | 1.63 | 2.13 | 1.13 | 1.58 | 1.46 | 1.64
rhIL-6: recombinant human IL-6; source not split at this label | more than 55% | ~ 40% | 1.22 | 1.38 | 1.91 | 2.25 | 1.7 | 1.23 | 1.5 | 2.03
